# Reference: BindingDB's records for doi:10.1016/j.bmc.2010.04.086 (Hoshi University, 2010)
# Target: T1, Polyphenol oxidase 2 (Agaricus bisporus, UniProt O42713)
# T1 sequence (O42713 whole entry): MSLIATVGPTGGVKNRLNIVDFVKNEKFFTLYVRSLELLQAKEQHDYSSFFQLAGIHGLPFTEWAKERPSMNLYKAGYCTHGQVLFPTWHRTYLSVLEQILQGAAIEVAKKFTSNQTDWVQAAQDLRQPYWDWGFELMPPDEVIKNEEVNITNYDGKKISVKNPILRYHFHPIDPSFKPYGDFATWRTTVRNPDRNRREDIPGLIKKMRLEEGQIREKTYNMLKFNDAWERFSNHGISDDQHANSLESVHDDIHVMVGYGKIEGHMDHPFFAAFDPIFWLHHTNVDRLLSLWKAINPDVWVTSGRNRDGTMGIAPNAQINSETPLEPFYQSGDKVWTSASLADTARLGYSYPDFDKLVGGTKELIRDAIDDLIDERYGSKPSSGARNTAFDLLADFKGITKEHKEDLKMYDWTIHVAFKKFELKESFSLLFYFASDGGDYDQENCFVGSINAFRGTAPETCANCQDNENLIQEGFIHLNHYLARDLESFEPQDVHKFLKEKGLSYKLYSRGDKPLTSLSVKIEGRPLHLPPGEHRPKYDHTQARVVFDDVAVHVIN
# Experiment: Inhibition of mushroom tyrosinase
row,Structure (SMILES),IC50 [µM]
1,COC(=O)C1C2=Nc3c(O)cccc3[C@]23CCN2C[C@H](C(C)=O)[C@H]1C[C@@H]23 (stereo not given in full) [Alpneumine B],> 100
2,COC(=O)C1C2=Nc3c(O)cccc3[C@]23CC[N+]2([O-])C[C@H](C(C)=O)[C@H]1C[C@H]32 (stereo not given in full) [Alpneumine A],> 100
3,COC(=O)C1C2=Nc3ccccc3[C@]23CCN2C[C@@H](C(C)=O)[C@H]1C[C@@H]23 (stereo not given in full) [Alpneumine E],> 100
4,COC(=O)C1C2=Nc3c(O)cccc3[C@]23CCN2C[C@@H](C(C)=O)[C@H]1C[C@@H]23 (stereo not given in full) [Alpneumine D],> 100
5,COC(=O)C1C2=Nc3ccccc3[C@]23CC[N+]2([O-])C[C@H](C(C)=O)[C@H]1C[C@H]32 (stereo not given in full) [Alpneumine C],> 100
